Assay results as given in patent publication US12552815B2, “Boronic acid derivatives and synthesis, polymorphic forms, and therapeutic uses thereof” (QPEX BIOPHARMA, INC., priority 2020, dated 2026).

Experiment: Dynamic vapor sorption (DVS) analysis
Assay type: physicochemical
Details: for hygroscopicity / water uptake by dynamic vapor sorption (DVS): 25° C., 10% RH steps from 5 to 95% RH and from 95 to 5% RH
Method: DVS analysis was carried out using a TA Instruments Q5000 Dynamic Vapor Sorption analyzer. The instrument was calibrated with standard weights and a sodium bromide standard for humidity. Approximately 20 mg of sample was loaded into a metal-coated quartz pan for analysis. The sample was analyzed at 25° C. with a maximum equilibration time of one hour in 10% relative humidity (RH) steps from 5 to 95% RH (adsorption cycle) and from 95 to 5% RH (desorption cycle). The movement from one step to the next occurred either after satisfying the equilibrium criterion of 0.01% weight change or, if the equilibrium criterion was not met, after one hour. The percent weight change values were calculated using Microsoft Excel®. The temperature for the DVS analysis can impact the outcome of the results.
Differential Scanning Calorimetry (5° C./min), Thermogravimetric analysis (5° C./min), and Dynamic Vapor Sorption (stepwise RH decrease from 45% to 0% at 50° C.) data for highly crystalline Form A of Compound I′ prepared analogously to the crystallization method above is shown in FIGS. 27-29, respectively.

| Structure (SMILES) | hygroscopicity / water uptake by dynamic vapor sorption (DVS) | gain/loss of water by dynamic vapor sorption (DVS), highly crystalline sample (relative humidity range of 5% to 75%, FIG. 29, stepwise RH decrease from 45% to 0% at 50° C.) |
| --- | --- | --- |
| CCOC(=O)c1c(F)ccc2c1O[B-]1(O[C@@H](c3ccccc3)[C@H](C)[NH+]1C)[C@@H]1C[C@H]21 (stereo partly shown) [Compound A-4] | not hygroscopic |  |
| O=C([O-])c1c(F)ccc2c1O[B-](O)(O)[C@@H]1C[C@H]21.[Na+].[Na+] [Form A of Compound I′] | hygroscopic | resists gain/loss of water |
| CCOC(=O)c1c(F)ccc2c1O[B-]1(C=C2)O[C@@H](c2ccccc2)[C@H](C)[NH+]1C (stereo partly shown) [Compound A-3, pseudoephedrine complex of ethyl 7-fluoro-2-hydroxy-2H-benzo[e][1,2]oxaborinine-8-carboxylate] | not hygroscopic |  |
